Data published in patent EP4806449A1, “ANTIVIRAL FOOD PRODUCT” (Creaciones Aromáticas Industriales, S.A., priority 2023, dated 2025).
≈ marks a conversion by molar mass, not a printed value.

Legend:
[1] = Toxicity controls without virus (MTT cell viability); type: cell-based; conditions: human; MRC-5 cells without 229E virus; 4.5h treatment; MTT after 5 days
Description: (§1) The MRC-5 cell line (lung-derived fibroblasts) from the American Type Culture Collection (ATCC) (CCL-171) was used. Cells were kept at 37°C and 5% CO2 in Eagle minimum essential medium (EMEM) supplemented with 10% foetal bovine serum (FBS) and antibiotics, trypsinising every 3-4 days, before reaching 90% confluence. Coronavirus 229E was obtained from the ATCC (VR-740) and amplified in MRC-5 cells, according to the ATCC protocol.
(§2) In both experiments, 5 days post-infection, differences in cell viability associated with the cytopathic effect of the virus or toxicity of the treatments were analysed by means of the MTT assay. The MTT assay is a colorimetric assay that measures the activity of enzymes that transform the MTT (methylthiazolyldiphenyl-tetrazolium bromide) molecule to formazan, purple in colour. Briefly, the medium was aspirated from the wells and 0.1 ml of 1 mg/ml MTT solution in EMEM was added to each well, and incubated at 37°C for 2 hours. Next, the MTT solution was aspirated, formazan crystals were dissolved in 0.1 ml of DMSO and absorbance was read at 570 nm (reference 660 nm). The mean absorbance values of the uninfected controls was considered to be 100% cell viability.
(§3) In order to evaluate the results, the following variables were calculated: • CC50: Half maximal cytotoxic concentration, which is the concentration of the compound of interest causing 50% toxicity. […]

MRC-5 cells = assay: as above; type: cell-based; conditions: MRC-5 cells without 229E virus; 4.5h treatment; MTT after 5 days
Description: as §1, §2, §3

human coronavirus 229E [2] = conditions: positive control, dose range 0.06-264 µg/ml
Description: (§4) In this study, the ability of the product object of the invention to inhibit the infectivity of human coronavirus 229E was determined. To that end, different concentrations of grape extract were incubated together with a defined concentration of the virus of interest for 30 minutes. Exposure of host cells to the virus causes the virus to replicate within the cells, which produces a cytopathic effect on the cells that is quantified by means of a cell viability assay after 5 days of exposure.
(§5) The MRC-5 cell line (lung-derived fibroblasts) from the American Type Culture Collection (ATCC) (CCL-171) was used. […]
(§6) A stock solution of the test substance was prepared in dimethyl sulfoxide (DMSO) at 100 mg/ml. […] Next, 0.25 ml of each dilution were mixed with 0.25 ml of a 229E inoculum diluted in 2% FBS EMEM medium, with the inoculum at an infectious concentration of 1000 TCID50/ml and the maximum concentration of the extract at 1 mg/ml (concentration range analysed in the medium: 7.81-1000 µg/ml). […]
(§7) To that end, a stock solution of the test substance was prepared in dimethyl sulfoxide (DMSO) at 50 mg/ml. […] Next, 0.25 ml of each dilution were mixed with 0.25 ml of a 229E inoculum diluted in 2% FBS EMEM medium, with the inoculum at an infectious concentration of 1000 TCID50/ml and the maximum concentration of the extract at 1 mg/ml (concentration range analysed in the medium: 0.78125 µg/ml - 100 µg/ml). […]

human coronavirus 229E [3] = assay: microbe, parasite or virus in culture; conditions: MRC5
Description: as §4, §5, §6, §7

SMILES: CCN(CC)CCCC(C)Nc1ccnc2cc(Cl)ccc12 (stereo not shown) [Chloroquine, chloroquine]
- CC50 at 4.5 h [1]: > 264 µg/mL
- CC50 (MRC-5 cells): >264 µg/mL
- clear antiviral effect starting from (human coronavirus 229E [2]): ≥ 16.5 µg/mL
- EC50 (human coronavirus 229E [3]): 5.96 µg/mL (≈ 18.6 µM)
